Laboratory results as given in ChEMBL document CHEMBL1146141, “Synthesis of constrained ceramide analogs and their potent antileukemic activities” (Bioorg Med Chem Lett, 2006).
Calls of active or inactive are those of the source. The rule behind the calls is not given here.

tested on: HL-60; test: Antileukemic activity against human leukemia HL60 cells at 20 uM; assay type: functional, cell-based

Row | SMILES | Activity
1 | CCCCCCCCCCCCC/C=C/[C@@H](O)[C@@H]1COC(=O)N1C(=O)CCCCCCCCCCCCCCC | inactive
2 | CCCCCCCCCCCCC/C=C/[C@@H](O)[C@@H]1COC(=O)N1C(=O)c1ccccc1 | Active
3 | CCCCCCCCCCCCC/C=C/[C@@H](O)[C@@H]1COC(=O)N1C(=O)CC | Active
